The record followed here is patent US20230065953A1, “NOVEL HETEROARYL-TRIAZOLE COMPOUNDS AS PESTICIDES” (Bayer Aktiengesellschaft, priority 2019, published 2023).

Common to all, as to assay type: in vivo
In assay [1] the test system is cattle ticks (Rhipicephalus microplus) strain Parkhurst, SP-resistant. The assay can be described thus: Rhipicephalus (Boophilus) microplus dip test. The settings on record: 100 ppm, egg deposition after 7 days. As for the experimental part:
Rhipicephalus (Boophilus) Microplus—Dip Test
Test animal: cattle ticks (Rhipicephalus microplus) strain Parkhurst, SP-resistant
Solvent: dimethyl sulfoxide
To produce a suitable preparation of active compound, 10 mg of active compound are dissolved in 0.5 mL solvent, and the concentrate is diluted with water to the desired concentration.
This compound solution is pipetted into tubes. 8-10 engorged, adult, female cattle ticks (Rhipicephalus microplus) are placed in perforated tubes. These tubes are immersed in the aqueous compound solution until the ticks are completely moistened. After the liquid has drained off, the ticks are transferred to a filter paper in a plastic tray and stored in a climate chamber.
After 7 days egg deposition of fertile eggs is monitored. Eggs where fertility is not visible are stored in a climate chamber till hatching after about 42 days. An efficacy of 100% means all eggs are infertile; 0% means all eggs are fertile.

The test system of assay [2] is adult brown dog ticks (Rhipicephalus sanguineus). As to the kind of experiment: Rhipicephalus sanguineus in-vitro contact test with adult brown dog ticks. The settings on record: 5 μg/cm^2 (=500 g/ha), after 48 hours, read-out: efficacy (ticks dead or moribund). The method, boiled down:
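Compound in acetone was coated onto inner walls of glass tubes by rotation (2 h, 30 rpm); 900 ppm gives 5 μg/cm^2. After drying, 5-10 adult ticks were enclosed per tube at room temperature; after 48 h, heat-escape test at 45-50° C scored dead/moribund ticks as % efficacy.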

Assay [3] has as its system adult mosquitoes Aedes aegypti strain MONHEIM. As to the kind of experiment: Aedes aegypti test (AEDSAE surface treatment & contact assay). The settings on record: 24 hours after contact, read-out: efficacy (mortality); for mortality at 4 mg/m2: surface concentration 4 mg/m^2, 30 min exposure; for mortality at 20 mg/m2: surface concentration 20 mg/m^2, 30 min exposure. The method, boiled down: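 Test compound in acetone (2 mg/ml) with 2000 ppm rapeseed oil methyl ester was dried onto a glazed tile. Adult Aedes aegypti MONHEIM were exposed to the treated surface for 30 minutes. Percent mortality was scored 24 hours after contact.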

In assay [4] the test system is adult mosquitoes Culex quinquefasciatus strain P00. As to the kind of experiment: whole plant or invertebrate. The following applies: read-out: efficacy (mortality). As for the experimental part:
Culex quinquefasciatus Test (CULXFA Surface Treatment & Contact Assay) • Solvent: Aceton+2000 ppm rapeseed oil methyl ester (RME)
In order to produce a sufficient, active ingredient containing solution it is necessary to solve the test compound in the solvent-mix (acetone at 2 mg/ml/RME 2 OOOppm). This solution is pipetted onto a glazed tile and after evaporation of the acetone, adult mosquitoes of the species Culex quinquefasciatus strain P00 are placed onto the dried surface. The exposure time is 30 minutes.
(§1) Mortality in percent (%) is determined 24 hours after contact of the insects to the treated surface. 100% mortality means that all tested insects are dead, whereas 0% means that no insect died.

Assay [5] relates to adult mosquitoes Anopheles funestus strain FUMOZ-R. The assay can be described thus: Anopheles funestus test (ANPHFU surface treatment & contact assay). The following applies: surface concentration 4 mg/m^2, 30 min exposure, 24 hours after contact, read-out: efficacy (mortality). As for the experimental part: Anopheles funestus Test (ANPHFU Surface Treatment & Contact Assay) • Solvent: Aceton+2000 ppm rapeseed oil methyl ester (RME)
In order to produce a sufficient, active ingredient containing solution it is necessary to solve the test compound in the solvent-mix (acetone at 2 mg/ml/RME 2000 ppm). This solution is pipetted onto a glazed tile and after evaporation of the acetone, adult mosquitoes of the species Anopheles funestus strain FUMOZ-R (Hunt et al., Med. Vet. Entomol. 2005 September; 19(3): 271-275) are placed onto the dried surface. The exposure time is 30 minutes.
as §1

Assay [6] deals with green peach aphid (Myzus persicae). As to the kind of experiment: Myzus persicae spray test. The following applies: foliar, 120 h, Chinese cabbage leaf disks, after 5 days. A digest of the protocol: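 Chinese cabbage leaf discs infested with all instars of the aphid were sprayed with compound prepared in acetone/DMF and diluted in water containing 1000 ppm emulsifier. Mortality (%) was scored after 5 days, 100% meaning all aphids killed and 0% none.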

The test system of assay [7] is brown planthopper (Nilaparvata lugens). As to the kind of experiment: Nilaparvata lugens spray test. The settings on record: 96 h, 100 g/ha, rice plants, after 4 days. As for the experimental part: Nilaparvata lugens—Spray Test • Solvent: 78.0 parts by weight of acetone • 1.5 parts by weight of dimethylformamide • Emulsifier: alkylarylpolyglycol ether
To produce a suitable preparation of active compound, 1 part by weight of active compound is mixed with the stated amount of solvents and is diluted with water, containing an emulsifier concentration of 1000 ppm, to the desired concentration. Further test concentrations are prepared by dilution with emulsifier containing water.
Rice plants (Oryza sativa) are sprayed with a preparation of the active ingredient of the desired concentration and the plants are infested with the brown planthopper (Nilaparvata lugens).
After 4 days mortality in % is determined. 100% means all planthoppers have been killed and 0% means none of the planthoppers have been killed.

Assay [8] has as its system larvae of the southern green stink bug (Nezara viridula). As to the kind of experiment: Nezara viridula spray test. The following applies: in Hordeum vulgare, 96 h. The method, boiled down: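 Barley plants sprayed with compound in acetone/dimethylformamide, diluted in water with 1000 ppm alkylarylpolyglycol ether emulsifier, then infested with Nezara viridula larvae. Percent mortality read after 4 days (100% = all killed, 0% = none).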

With `C[C@H](NC(=O)c1cc(C(F)(F)F)cc(C(F)(F)F)c1)c1ncnn1-c1ncc(C#N)s1` [I-2], the “efficacy (infertile eggs)” value in assay [1] worked out at 100%. Further, the pest or weed control at 5 µg/cm2, 500 g/ha in assay [2] is 100%. The mortality at 4 mg/m2 in assay [3], in assay [4] and in assay [5] was 80 to 100% throughout. Further, in assay [3], the mortality (as a rule, the share of the test organisms that died) at 20 mg/m2 is 80 to 100%.
On to `Cc1nc([C@H](C)NC(=O)c2cc(C(F)(F)F)cc(C(F)(F)F)c2)n(-c2ncc(C(=O)N(C)CC3CC3)s2)n1` [I-4], for which the pest or weed control at 5 µg/cm2, 500 g/ha in assay [2] amounted to 100%. In addition, the mortality at 100 g/ha in assay [6] and in assay [7] was 90% throughout. The mortality at 20 mg/m2 in assay [3] was 80 to 100%.
For the molecule `Cc1nc([C@H](C)NC(=O)c2cc(C(F)(F)F)cc(C(F)(F)F)c2)n(-c2ncc(C(=O)N(C)C)s2)n1` [I-5, 2-(5-{(1S)-1-[3,5-bis(trifluoromethyl)benzamido]ethyl}-3-methyl-1H-1,2,4-triazol-1-yl)-N,N-dimethyl-1,3-thiazole-5-carboxamide], the “efficacy (infertile eggs)” value in assay [1] was determined as 100%. Also, in assay [2], the pest or weed control at 5 µg/cm2, 500 g/ha worked out at 100%. The mortality at 100 g/ha came out at 90% in assay [6] and 100% in assay [7].
Take `CCN(C)C(=O)c1cnc(-n2nc(C)nc2[C@H](C)NC(=O)c2cc(C(F)(F)F)cc(C(F)(F)F)c2)s1` [I-6]: the “efficacy (infertile eggs)” value in assay [1] is on record as 100%. In addition, in assay [2], the pest or weed control at 5 µg/cm2, 500 g/ha came out at 100%. Moreover, the mortality at 100 g/ha in assay [6] and in assay [7] was 100% each time. The mortality at 4 mg/m2 in assay [3] fell in the range of 80 to 100%.
As for `Cc1nc([C@H](C)NC(=O)c2cc(C(F)(F)F)cc(C(F)(F)F)c2)n(-c2ncc(C(=O)N(C)CC#N)s2)n1` [I-9], the “efficacy (infertile eggs)” value in assay [1] turned out to be 100%. Further, the pest or weed control at 5 µg/cm2, 500 g/ha in assay [2] was 100%. For the same molecule, the mortality at 100 g/ha in assay [6] was determined as 100%; in assay [8], 90%; in assay [7] it was 100%. In addition, the mortality at 4 mg/m2 in assay [3] lay in the range of 80 to 100%. In addition, the mortality at 20 mg/m2 in assay [3] is 80 to 100%.
For the molecule `Cc1nc([C@H](C)NC(=O)c2cc(C(F)(F)F)cc(C(F)(F)F)c2)n(-c2ncc(C(N)=O)s2)n1` [I-21, 2-(5-{(1S)-1-[3,5-bis(trifluoromethyl)benzamido]ethyl}-3-methyl-1H-1,2,4-triazol-1-yl)-1,3-thiazole-5-carboxamide], the pest or weed control at 5 µg/cm2, 500 g/ha in assay [2] came to 100%. In addition, the mortality at 100 g/ha in assay [6] and in assay [8] was 100% throughout. Moreover, in assay [3], the mortality at 4 mg/m2 was 80 to 100%. The mortality at 20 mg/m2 in assay [3] lay in the range of 80 to 100%.
